In patent US9321718B2 (CHROMA THERAPEUTICS LTD., priority 2010, dated 2016):

How the values were obtained:
intact Hut78 cells = experiment: Carboxylic acid accumulation in intact Hut78 cells; format: in vitro ADME, human; details: in words
Protocol: (§1) The assessment of the accumulation of ester-derived acid in intact human tumour cells can be measured using the following method:
(§2) U937, THP-1 or Hut 78 cells (4×10^4/ml) were incubated at 37° C. in culture medium containing 6 μM compound. Incubations were terminated by centrifugation (300 g; 5 min; 4° C.). Supernatants were added to 4 volumes of HPLC-grade acetonitrile. After decanting the supernatant, the residual cell pellet (1×10^6 cells) was extracted into 1 ml of acetonitrile. Samples were analyzed for the ester and acid metabolite at room temperature by LC/MS/MS (Sciex API3000). Chromatography was based on an AceCN (75*21 mm) column with a 5-95% (v/v) acetonitrile, 0.1% (v/v) formic acid mobile phase.

[1] = target: T1, human recombinant his-tagged HSP90α (Homo sapiens, UniProt P07900); experiment: HSP90 enzyme assay (HTRF, competition with biotinylated Geldanamycin); format: binding; details: IC50 range; read-out: Enzyme Assay
T1 construct: purchased Prospec Technogene #HSP90
How it was run: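 HTRF competition: compounds (5000 to 0.3 nM, 0.5% DMSO) displace 40 nM biotinylated geldanamycin from 40 nM his-tagged HSP90α. Binding was read via Eu-cryptate anti-his/streptavidin-XL FRET after 20 h at room temperature in Hepes pH 7.3 buffer. IC50 was fitted against controls.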

intact THP-1 cells = experiment: Carboxylic acid accumulation in intact THP-1 cells; format: in vitro ADME, human; details: in words
Protocol: as §1, §2

intact U937 cells = experiment: Carboxylic acid accumulation in intact U937 cells; format: in vitro ADME, human; details: in words
Protocol: as §1, §2

[2] = system: TNFα release from LPS stimulated THP-1 (hCE-1 +ve) cells; experiment: LPS-stimulation of THP-1 cells (TNF-α release); format: cell-based, human; details: Homo sapiens, THP-1; IC50 range; TNF-α after LPS 1 μg/ml, 6 hours; read-out: THP-1 Assay
How it was run: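 THP-1 cells at 4×10^4 per well were pre-incubated for 16 h, then exposed to inhibitor for 2 h before stimulation with 1 μg/ml LPS for 6 h at 37 °C. TNF-α in cell-free supernatants was measured by sandwich ELISA.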

[3] = system: TNF-α levels in LPS-stimulated human whole blood; experiment: LPS-stimulation of human whole blood (TNF-α levels); format: cell-based; details: Homo sapiens; IC50 range; TNF-α after LPS 100 ng/ml, 6 hours
Protocol: Whole blood is taken by venous puncture using heparinised vacutainers (Becton Dickinson) and diluted in an equal volume of RPMI1640 tissue culture media (Sigma). 100 μl is then plated in V-bottomed 96 well tissue culture treated plates. 2 Hours after the addition of the inhibitor in 100 μl of RPMI1640 media, the blood is stimulated with LPS (E. Coli strain 005:B5, Sigma) at a final concentration of 100 ng/ml and incubated at 37° C. in 5% CO2 for 6 hours. TNF-α levels are measured from cell-free supernatants by sandwich ELISA (R&D Systems #QTA00B).

In the case of `CC(C)C[C@H](NC1CCN(C(=O)c2cc(C(C)C)c(O)cc2O)CC1)C(=O)OC1CCCC1` [Example 1, cyclopentyl N-(1-{[2,4-dihydroxy-5-(propan-2-yl)phenyl]carbonyl}piperidin-4-yl)-L-leucinate], the “Acid detected in Hut78 cells” value (intact Hut78 cells) is reported as “negligible”, the IC50 [1] is reported as < 100 nM and the “Carboxylic acid accumulated by THP-1 cells” value (intact THP-1 cells) is reported as “significant amounts”. The “Carboxylic acid accumulated by U937 cells” value (intact U937 cells) was “significant amounts”, the IC50 [2] was < 100 nM and the IC50 [3] was 100 to 1000 nM.
